{"source": "patent US10183032B2", "about": "“Methods for treating bacterial infection” (Ball State Innovation Corporation, priority 2012, dated 2019)", "key": {"fibronectin": {"tested_on": "fibronectin", "assay": "Fibronectin adhesion assay, HUVEC", "type": "cell-based, human", "settings": "ML 141 10 μM, 18-20 h; re-plated 2 h; vehicle 24±4%", "protocol": "FIG. 10C is a graph illustrating that ML 141 decreases cell adhesion to fibronectin-coated surface. HUVEC were pretreated as in FIGS. 10A and 10B, lifted from culture dishes using cell scrapers, and re-plated (2 h) onto non-tissue culture treated plates coated with fibronectin and blocked with bovine serum albumin. Following extensive washes, cells were recovered using trypsin and counted using an Accuri C6 flow cytometer (*p<0.05 by t-test on log-transformed data pooled from 2 independent experiments, n=8/treatment).\nHUVEC were plated and pretreated as described for the invasion assay. 96-well, non-tissue culture treated plates (Sarstedt, Newton, N.C.) were coated with fibronectin (20 μg/ml; 2 h; 37° C.), washed with PBS, and blocked with bovine serum albumin (2%, 30 min, RT). HUVEC were lifted from the 35 mm dishes using cell scrapers, 100 μl counted for normalization using the Accuri C6, and 200 μl transferred to the 96-well plate (2 h, 5% CO2, 37° C.). After extensive washes in PBS, cells were removed from the plate using trypsin, washed in FACS buffer, fixed, and 100 μl counted. These cell counts were normalized to those that had been taken prior to plating on the fibronectin-coated plate."}, "host cell": {"tested_on": "host cell", "assay": "Host cell cytotoxicity in vitro (preliminary data)", "type": "cell-based"}, "Staphylococcus aureus": {"tested_on": "Staphylococcus aureus", "assay": "S. aureus invasion of serum-starved RAW 264.7 cells, CFU recovery", "type": "cell-based", "settings": "treatment 1 hour, serum-starved conditions, 10 μM", "protocol": "FIG. 5 is a graph illustrating ML 141 inhibiting invasion with shorter duration exposure under serum starved conditions. RAW 264.7 cells were serum-starved overnight then pretreated for 1 hour with the vehicle control dimethyl sulfoxide (DMSO) or with ML 141 (10 μM). Following infection with Staphylococcus aureus (1 hour), extracellular bacteria were eliminated using the antimicrobials gentamicin and lysostaphin (45 minutes), and intracellular bacteria recovered by permeabilizing the host cells. Serial dilutions of the recovered intracellular bacteria were incubated on tryptic soy agar, colonies enumerated, and colony forming units (CFU)/ml calculated (*less than vehicle control; p≤0.05 by Student's t-test; n=3/treatment). […]\nTwo days prior to the assay, TSB is inoculated with S. aureus (American Type Culture Collection #29213) and incubated overnight (225 rpm, 37° C.). […] To detect the level of infection using flow cytometry, cells that have been infected with fluorescently-labeled bacteria are washed extensively with PBS, lifted from 96-well plate by incubation with trypsin, washed extensively in FACS buffer (2% BSA/0.1% sodium azide/PBS), fixed (FACS buffer containing 0.74% formaldehyde), and are counted using an Accuri flow cytometer (BD, Franklin Lakes, N.J.). […]"}}, "data": [{"smiles": "COc1ccc(C2CC(c3ccccc3)=NN2c2ccc(S(N)(=O)=O)cc2)cc1", "note": "(stereo not drawn) [ML 141, 4-[3-(4-methoxyphenyl)-5-phenyl-3,4-dihydropyrazol-2-yl]benzenesulfonamide]", "values": [{"measurement": "adherence of HUVEC to fibronectin-coated plates", "setting": "fibronectin", "value": "14±2", "unit": "%"}, {"measurement": "concentration at which host cell cytotoxicity was undetectable", "setting": "host cell", "value": "below 30 μM"}, {"measurement": "inhibition of invasion, shorter exposure", "setting": "Staphylococcus aureus", "value": "Inhibition is detectable"}]}]}
